Assay results: PubChem BioAssay AID256 (DTP/NCI, 2004)
Inconclusive results and toxic doses are left out. How the source made its calls: active means survival T/C of 150% or more; inactive means T/C below 125% in these data.

Test system: CD2F1 mice, L1210 leukemia ip, survival T/C
Test: NCI In Vivo Anticancer Drug Screen. Data for tumor model L1210 Leukemia (intraperitoneal) in CD2F1 (CDF1) mice
Conditions: endpoint: mean survival time, higher = longer survival
How it was run: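 Ratio T/C, where T is the treated-group value and C the vehicle-dosed control value, from mice implanted with a transplantable tumor.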

[1] = dose: 100.0 mg/kg/injection, schedule: Q01DX009 (ip), vehicle: saline with Tween-80
[2] = dose: 200.0 mg/kg/injection, schedule: Q01DX009 (ip), vehicle: saline with Tween-80
[3] = dose: 400.0 mg/kg/injection, schedule: Q01DX009 (ip), vehicle: saline with Tween-80
[4] = dose: 50.0 mg/kg/injection, schedule: Q01DX009 (ip), vehicle: saline with Tween-80
[5] = dose: 100.0 mg/kg/injection, schedule: Q04DX003 (ip), vehicle: saline with Tween-80
[6] = dose: 200.0 mg/kg/injection, schedule: Q04DX003 (ip), vehicle: saline with Tween-80
[7] = dose: 400.0 mg/kg/injection, schedule: Q04DX003 (ip), vehicle: saline with Tween-80

Measured: T/C

CC(C)N=C1C([O-])=N[N+](C)(C)N1C(C)C
inactive: [1] 106 % of control | dose: 100.0 mg/kg/injection, schedule: Q04DX003 (ip), vehicle: saline 95 % of control | [2] 93 % of control | dose: 200.0 mg/kg/injection, schedule: Q04DX003 (ip), vehicle: saline 98 % of control | [3] 98 % of control | dose: 400.0 mg/kg/injection, schedule: Q04DX003 (ip), vehicle: saline 110 % of control

CCCC(=O)Nc1ccn(C2OC(CO)C(O)C2O)c(=O)n1 (configuration not stated)
inactive: [4] 98 % of control | dose: 50.0 mg/kg/injection, schedule: Q04DX002 (ip), vehicle: saline 100 % of control | [1] 102 % of control | dose: 100.0 mg/kg/injection, schedule: Q04DX002 (ip), vehicle: saline 97 % of control | [2] 102 % of control | dose: 200.0 mg/kg/injection, schedule: Q04DX002 (ip), vehicle: saline 97 % of control | [3] 104 % of control | dose: 400.0 mg/kg/injection, schedule: Q04DX002 (ip), vehicle: saline 97 % of control | dose: 600.0 mg/kg/injection, schedule: Q04DX002 (ip), vehicle: saline 97 % of control

O=C(O)C1CC2C(=O)CCCCCCC2C1O (configuration not stated)
inactive: dose: 100.0 mg/kg/injection, schedule: Q01DX001 (ip), vehicle: saline with Tween-80 93 % of control | [1] 98 % of control | dose: 200.0 mg/kg/injection, schedule: Q01DX001 (ip), vehicle: saline with Tween-80 98 % of control | [2] 93 % of control | dose: 400.0 mg/kg/injection, schedule: Q01DX001 (ip), vehicle: saline with Tween-80 91 % of control | [3] 96 % of control

CNC(=O)c1nc2c(nc1NC)n(C)c(=O)n2C
inactive: dose: 12.5 mg/kg/injection, schedule: Q01DX005 (ip), vehicle: other 93 % of control | dose: 25.0 mg/kg/injection, schedule: Q01DX005 (ip), vehicle: other 90 % of control | dose: 50.0 mg/kg/injection, schedule: Q01DX005 (ip), vehicle: other 95 % of control

CCCCC[CH2][Sn]([CH2]C)([CH2]C)[O]C(C)=O
inactive: dose: 0.5 mg/kg/injection, schedule: Q04DX003 (ip), vehicle: saline 103 % of control | dose: 0.63 mg/kg/injection, schedule: Q04DX003 (ip), vehicle: saline with Tween-80 95 % of control | dose: 1.0 mg/kg/injection, schedule: Q04DX003 (ip), vehicle: saline 100 % of control | dose: 1.25 mg/kg/injection, schedule: Q04DX003 (ip), vehicle: saline with Tween-80 93 % of control | dose: 2.0 mg/kg/injection, schedule: Q04DX003 (ip), vehicle: saline 91 % of control | dose: 2.5 mg/kg/injection, schedule: Q04DX003 (ip), vehicle: saline with Tween-80 88 % of control

O=C1C2C3SC(c4nc5ccccc5cc43)C2C(=O)N1c1ccccc1 (configuration not stated)
inactive: dose: 25.0 mg/kg/injection, schedule: Q01DX001 (ip), vehicle: saline with Tween-80 92 % of control | dose: 50.0 mg/kg/injection, schedule: Q01DX001 (ip), vehicle: saline with Tween-80 92 % of control

O=C(COc1ccccc1)NC(=S)Nc1ccc(Cl)cc1Cl
inactive: dose: 25.0 mg/kg/injection, schedule: Q01DX009 (ip), vehicle: saline with Tween-80 100 % of control | [4] 100 % of control

O=c1cc(-c2ccc(S(=O)(=O)F)cc2)[nH]c2ccc([N+](=O)[O-])cc12
inactive: dose: 100.0 mg/kg/injection, schedule: Q01DX001 (ip), vehicle: Klucel (hydroxypropylcellulose) (HPC) 108 % of control | dose: 200.0 mg/kg/injection, schedule: Q01DX001 (ip), vehicle: Klucel (hydroxypropylcellulose) (HPC) 101 % of control | dose: 400.0 mg/kg/injection, schedule: Q01DX001 (ip), vehicle: Klucel (hydroxypropylcellulose) (HPC) 112 % of control

CN(C)CCCN(C)CCCN(C)C
inactive: dose: 75.0 mg/kg/injection, schedule: Q01DX001 (ip), vehicle: saline 104 % of control | dose: 150.0 mg/kg/injection, schedule: Q01DX001 (ip), vehicle: saline 103 % of control

O=C(O)C(F)(F)F.O=C(O)C(F)(F)F.O=C(O)C(F)(F)F.O=C(O)C(F)(F)F.[Rh].[Rh]
inactive: dose: 12.5 mg/kg/injection, schedule: Q01DX009 (ip), vehicle: saline 107 % of control | dose: 25.0 mg/kg/injection, schedule: Q01DX009 (ip), vehicle: saline 115 % of control | dose: 50.0 mg/kg/injection, schedule: Q01DX009 (ip), vehicle: saline 118 % of control | dose: 100.0 mg/kg/injection, schedule: Q01DX009 (ip), vehicle: saline 107 % of control

COc1ccc(NC(=O)Nc2cc(C)on2)c(Cl)c1
inactive: dose: 50.0 mg/kg/injection, schedule: Q01DX009 (ip), vehicle: Klucel (hydroxypropylcellulose) (HPC) 91 % of control | dose: 100.0 mg/kg/injection, schedule: Q01DX009 (ip), vehicle: Klucel (hydroxypropylcellulose) (HPC) 95 % of control | dose: 100.0 mg/kg/injection, schedule: Q04DX003 (ip), vehicle: Klucel (hydroxypropylcellulose) (HPC) 110 % of control | dose: 200.0 mg/kg/injection, schedule: Q01DX009 (ip), vehicle: Klucel (hydroxypropylcellulose) (HPC) 98 % of control | dose: 200.0 mg/kg/injection, schedule: Q04DX003 (ip), vehicle: Klucel (hydroxypropylcellulose) (HPC) 106 % of control | dose: 400.0 mg/kg/injection, schedule: Q04DX003 (ip), vehicle: Klucel (hydroxypropylcellulose) (HPC) 106 % of control

Oc1ccccc1C=NCc1ccccc1.Oc1ccccc1C=NCc1ccccc1.[Cu]
inactive: dose: 100.0 mg/kg/injection, schedule: Q04DX002 (ip), vehicle: saline with Tween-80 100 % of control | dose: 200.0 mg/kg/injection, schedule: Q04DX002 (ip), vehicle: saline with Tween-80 96 % of control | dose: 400.0 mg/kg/injection, schedule: Q04DX002 (ip), vehicle: saline with Tween-80 100 % of control

Cc1ccc(S(=O)(=O)O)c2c([N+](=O)[O-])cccc12
inactive: [5] 100 % of control | [6] 104 % of control | [7] 96 % of control

C=Cc1ccc(C(N)=O)cc1
inactive: [5] 101 % of control | [6] 98 % of control | [7] 96 % of control

CNc1c(Cl)c(Cl)c(Br)c(Cl)c1Cl
inactive: [5] 100 % of control | [6] 95 % of control | [7] 101 % of control

O/N=C/c1cccc[n+]1Cc1ccccc1
inactive: dose: 1.56 mg/kg/injection, schedule: Q01DX009 (ip), vehicle: Klucel (hydroxypropylcellulose) (HPC) 107 % of control | dose: 3.13 mg/kg/injection, schedule: Q01DX009 (ip), vehicle: Klucel (hydroxypropylcellulose) (HPC) 106 % of control | dose: 6.25 mg/kg/injection, schedule: Q01DX009 (ip), vehicle: Klucel (hydroxypropylcellulose) (HPC) 102 % of control | dose: 12.5 mg/kg/injection, schedule: Q01DX009 (ip), vehicle: Klucel (hydroxypropylcellulose) (HPC) 106 % of control | dose: 25.0 mg/kg/injection, schedule: Q01DX009 (ip), vehicle: Klucel (hydroxypropylcellulose) (HPC) 95 % of control | dose: 25.0 mg/kg/injection, schedule: Q01DX009 (ip), vehicle: water 100 % of control
